According to the supplement of paper PMC11208160:

Test: recombinant barcode read abundance after kanamycin selection (control-corrected) (log10(CPM+1)); higher = more efficient recombination; sequences stand for … in AGTGCAGAGAAAATCGGCCAGTTTTCTCTGCCTGCAGTCCGCATGCCGT…ATTTATGCAGCGGACTGCCTTTCTCCCAAAGTGATAAACCGGACAGTATCATGGACCGGTTTTCCCGGTAATCCGTATTTGCAAGGTTGGTTTCACT; site = the 11-nt target
How it was run: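 In E. coli, a pooled library matched targets to IS621 bridge RNA target-binding loops and was introduced alongside a donor plasmid. Cells went onto chloramphenicol/ampicillin/kanamycin with 0.1 mM IPTG or onto chloramphenicol/ampicillin LB agar as control, in duplicate. Recombination efficiency, from recombinant-junction barcodes as counts per million, is averaged and control-corrected. It is reported as log10(CPM+1).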

| Sequence | recombinant barcode read abundance (log10) |
| --- | --- |
| TAAGAATTATGGGTTCTAACCTGTTGCCTAG [TAAGAATCTAG_LTGcore_TA_RTGcore_CT] (site TAAGAATCTAG) (LTG core: TA, RTG core: CT) | 0 |
| TAAGAATTCTGGGTTCTAACCTGTTGCCTAG [TAAGAATCTAG_LTGcore_TC_RTGcore_CT] (site TAAGAATCTAG) (LTG core: TC, RTG core: CT) | 0.0977 |
| TAAGAATTTTGGGTTCTAACCTGTTGCCTAG [TAAGAATCTAG_LTGcore_TT_RTGcore_CT] (site TAAGAATCTAG) (LTG core: TT, RTG core: CT) | 0.0485 |
| TAGAGGGAATGGGTTCTAACCTGTTGCGGAG [TAGAGGGCTCC_LTGcore_AA_RTGcore_CT] (site TAGAGGGCTCC) (LTG core: AA, RTG core: CT) | 0.247 |
| TAGAGGGACTGGGTTCTAACCTGTTGCGGAG [TAGAGGGCTCC_LTGcore_AC_RTGcore_CT] (site TAGAGGGCTCC) (LTG core: AC, RTG core: CT) | 0.265 |
| TAGAGGGCTTGGGTTCTAACCTGTTGCGGCG [TAGAGGGCTCC_LTGcore_CT_RTGcore_CG] (site TAGAGGGCTCC) (LTG core: CT, RTG core: CG) | 0.972 |
| TAGAGGGCTTGGGTTCTAACCTGTTGCGGGC [TAGAGGGCTCC_LTGcore_CT_RTGcore_GC] (site TAGAGGGCTCC) (LTG core: CT, RTG core: GC) | 1.36 |
| TAGAGGGCTTGGGTTCTAACCTGTTGCGGGG [TAGAGGGCTCC_LTGcore_CT_RTGcore_CC] (site TAGAGGGCTCC) (LTG core: CT, RTG core: CC) | 0.241 |
| TAGAGGGCTTGGGTTCTAACCTGTTGCGGTA [TAGAGGGCTCC_LTGcore_CT_RTGcore_TA] (site TAGAGGGCTCC) (LTG core: CT, RTG core: TA) | 0.144 |
| TAGAGGGGATGGGTTCTAACCTGTTGCGGTC [TAGAGGGCTCC_LTGcore_GA_RTGcore_GA] (site TAGAGGGCTCC) (LTG core: GA, RTG core: GA) | 0.0627 |
| TAGAGGGGCTGGGTTCTAACCTGTTGCGGAG [TAGAGGGCTCC_LTGcore_GC_RTGcore_CT] (site TAGAGGGCTCC) (LTG core: GC, RTG core: CT) | 0.284 |
| TAGAGGGTCTGGGTTCTAACCTGTTGCGGAG [TAGAGGGCTCC_LTGcore_TC_RTGcore_CT] (site TAGAGGGCTCC) (LTG core: TC, RTG core: CT) | 0.506 |
| TAGAGGGTGTGGGTTCTAACCTGTTGCGGCA [TAGAGGGCTCC_LTGcore_TG_RTGcore_TG] (site TAGAGGGCTCC) (LTG core: TG, RTG core: TG) | 0.623 |
| TCGCGACAGTGGGTTCTAACCTGTTGCCGAG [TCGCGACCTCG_LTGcore_AG_RTGcore_CT] (site TCGCGACCTCG) (LTG core: AG, RTG core: CT) | 0.161 |
| TCGCGACCTTGGGTTCTAACCTGTTGCCGAA [TCGCGACCTCG_LTGcore_CT_RTGcore_TT] (site TCGCGACCTCG) (LTG core: CT, RTG core: TT) | 0.666 |
| TCGCGACCTTGGGTTCTAACCTGTTGCCGAG [TCGCGACCTCG_LTGcore_CT_RTGcore_CT] (site TCGCGACCTCG) (LTG core: CT, RTG core: CT) | 1.15 |
| TCGCGACGCTGGGTTCTAACCTGTTGCCGGC [TCGCGACCTCG_LTGcore_GC_RTGcore_GC] (site TCGCGACCTCG) (LTG core: GC, RTG core: GC) | 0.0326 |
| TCGCGACGGTGGGTTCTAACCTGTTGCCGCC [TCGCGACCTCG_LTGcore_GG_RTGcore_GG] (site TCGCGACCTCG) (LTG core: GG, RTG core: GG) | 0.0807 |
| TCGCGACTATGGGTTCTAACCTGTTGCCGTA [TCGCGACCTCG_LTGcore_TA_RTGcore_TA] (site TCGCGACCTCG) (LTG core: TA, RTG core: TA) | 0.139 |
| TCTACCCCTTGGGTTCTAACCTGTTGCTGCA [TCTACCCCTCA_LTGcore_CT_RTGcore_TG] (site TCTACCCCTCA) (LTG core: CT, RTG core: TG) | 0.217 |
| TCTACCCCTTGGGTTCTAACCTGTTGCTGGC [TCTACCCCTCA_LTGcore_CT_RTGcore_GC] (site TCTACCCCTCA) (LTG core: CT, RTG core: GC) | 0.129 |
| TCTACCCGCTGGGTTCTAACCTGTTGCTGAG [TCTACCCCTCA_LTGcore_GC_RTGcore_CT] (site TCTACCCCTCA) (LTG core: GC, RTG core: CT) | 0.045 |
| TCTACCCGTTGGGTTCTAACCTGTTGCTGAG [TCTACCCCTCA_LTGcore_GT_RTGcore_CT] (site TCTACCCCTCA) (LTG core: GT, RTG core: CT) | 0.149 |

| Sequence | recombinant barcode read abundance (log10) |
| --- | --- |
| TCTACCCTATGGGTTCTAACCTGTTGCTGTA [TCTACCCCTCA_LTGcore_TA_RTGcore_TA] (site TCTACCCCTCA) (LTG core: TA, RTG core: TA) | 0.0877 |
| TCTACCCTTTGGGTTCTAACCTGTTGCTGAA [TCTACCCCTCA_LTGcore_TT_RTGcore_TT] (site TCTACCCCTCA) (LTG core: TT, RTG core: TT) | 0.0207 |
| TCTACCCTTTGGGTTCTAACCTGTTGCTGAG [TCTACCCCTCA_LTGcore_TT_RTGcore_CT] (site TCTACCCCTCA) (LTG core: TT, RTG core: CT) | 0.0279 |
| TGATACCAGTGGGTTCTAACCTGTTGCGTAG [TGATACCCTAC_LTGcore_AG_RTGcore_CT] (site TGATACCCTAC) (LTG core: AG, RTG core: CT) | 0.0989 |
| TGATACCATTGGGTTCTAACCTGTTGCGTAG [TGATACCCTAC_LTGcore_AT_RTGcore_CT] (site TGATACCCTAC) (LTG core: AT, RTG core: CT) | 0.0337 |
| TGATACCCGTGGGTTCTAACCTGTTGCGTAG [TGATACCCTAC_LTGcore_CG_RTGcore_CT] (site TGATACCCTAC) (LTG core: CG, RTG core: CT) | 0.907 |
| TGATACCCGTGGGTTCTAACCTGTTGCGTCG [TGATACCCTAC_LTGcore_CG_RTGcore_CG] (site TGATACCCTAC) (LTG core: CG, RTG core: CG) | 0.0552 |
| TGATACCCTTGGGTTCTAACCTGTTGCGTTG [TGATACCCTAC_LTGcore_CT_RTGcore_CA] (site TGATACCCTAC) (LTG core: CT, RTG core: CA) | 1.25 |
| TGATACCGCTGGGTTCTAACCTGTTGCGTGC [TGATACCCTAC_LTGcore_GC_RTGcore_GC] (site TGATACCCTAC) (LTG core: GC, RTG core: GC) | 0.107 |
| TGATACCGGTGGGTTCTAACCTGTTGCGTCC [TGATACCCTAC_LTGcore_GG_RTGcore_GG] (site TGATACCCTAC) (LTG core: GG, RTG core: GG) | 0.115 |
| TGATACCTGTGGGTTCTAACCTGTTGCGTAG [TGATACCCTAC_LTGcore_TG_RTGcore_CT] (site TGATACCCTAC) (LTG core: TG, RTG core: CT) | 0.064 |
| TGTATTCCCTGGGTTCTAACCTGTTGCCTGG [TGTATTCCTAG_LTGcore_CC_RTGcore_CC] (site TGTATTCCTAG) (LTG core: CC, RTG core: CC) | 0.267 |
| TGTATTCCTTGGGTTCTAACCTGTTGCCTAT [TGTATTCCTAG_LTGcore_CT_RTGcore_AT] (site TGTATTCCTAG) (LTG core: CT, RTG core: AT) | 0.192 |
| TGTATTCCTTGGGTTCTAACCTGTTGCCTCC [TGTATTCCTAG_LTGcore_CT_RTGcore_GG] (site TGTATTCCTAG) (LTG core: CT, RTG core: GG) | 0.364 |
| TGTATTCCTTGGGTTCTAACCTGTTGCCTGT [TGTATTCCTAG_LTGcore_CT_RTGcore_AC] (site TGTATTCCTAG) (LTG core: CT, RTG core: AC) | 0.0232 |
| TGTATTCGATGGGTTCTAACCTGTTGCCTTC [TGTATTCCTAG_LTGcore_GA_RTGcore_GA] (site TGTATTCCTAG) (LTG core: GA, RTG core: GA) | 0.138 |
| TGTATTCGGTGGGTTCTAACCTGTTGCCTCC [TGTATTCCTAG_LTGcore_GG_RTGcore_GG] (site TGTATTCCTAG) (LTG core: GG, RTG core: GG) | 0.0849 |
| TGTATTCGTTGGGTTCTAACCTGTTGCCTAC [TGTATTCCTAG_LTGcore_GT_RTGcore_GT] (site TGTATTCCTAG) (LTG core: GT, RTG core: GT) | 0.00818 |
| TGTATTCTATGGGTTCTAACCTGTTGCCTTA [TGTATTCCTAG_LTGcore_TA_RTGcore_TA] (site TGTATTCCTAG) (LTG core: TA, RTG core: TA) | 0.0243 |
| TGTATTCTTTGGGTTCTAACCTGTTGCCTAG [TGTATTCCTAG_LTGcore_TT_RTGcore_CT] (site TGTATTCCTAG) (LTG core: TT, RTG core: CT) | 0.242 |
| TTATAAACTTGGGTTCTAACCTGTTGCCTAG [TTATAAACTAG_LTGcore_CT_RTGcore_CT] (site TTATAAACTAG) (LTG core: CT, RTG core: CT) | 0.894 |
| TTATAAACTTGGGTTCTAACCTGTTGCCTCG [TTATAAACTAG_LTGcore_CT_RTGcore_CG] (site TTATAAACTAG) (LTG core: CT, RTG core: CG) | 0.154 |
